# Measured values published in patent US8313766B2, “Oral antidepressant formulation with reduced excipient load” (priority 2010, dated 2012).
# Assays:
# [1] = CX-157 solubility in candidate solvents, test tube method; format: physicochemical; settings: organic solvent or mixture, thermodynamic from solid, CX-157 Form A
# Method: Ethanol, acetone and methylene chloride were selected and tested as candidate solvents. CX-157 solubility in the solvent was performed using a test tube method. A specific amount of CX-157 (Form A: disclosed in U.S. Pat. Pub. No. 2008/0009542 herein incorporated by reference in it entirety) was added into 1 mL test solvent and the sample was agitated vigorously by a Beadbeater (BB). If CX-157 was completely soluble in 1 mL of test solvent, additional CX-157 was added until excess solid was present. The solubility (mg/mL) of CX-157 was calculated by the amount (mass) of CX-157 added to the test solvent (1 mL). Acetone had the highest solubility of the solvents tested with a solubility of from about 60 mg/mL to about 80 mg/mL at room temperature.
# [2] = Solubility of CX-157 in water (descriptive statement); format: physicochemical
# [3] = human plasma, oral dose of 200 mg in a capsule with food; cited from earlier work
structure (smiles),measurement,setting,value
"O=S1(=O)c2ccc(F)cc2Oc2cc(OCC(F)(F)F)ccc21 [CX-157, 3-fluoro-7-(2,2,2-trifluoroethoxy)phenoxathiin 10,10-dioxide]",solubility,"[1]; solvent acetone, at room temperature",60 to 80 mg/mL
same,solubility,"[1]; solvent ethanol, at 60° C.",< 10 mg/mL
same,solubility,"[1]; solvent methylene chloride, at room temperature",< 20 mg/mL
same,solubility in water,[2],only sparing solubility
NCCc1ccc(O)cc1 [tyramine],Tmax,[3],≤ 1.25 h
same,time after dosing at which non-detectable levels observed,[3],3 to 4 h
